Ends that are not written are not given here.

What all share (assay type): cell-based
Assay [1] deals with T1, HLA-B*2705 (Homo sapiens, UniProt P01889, D138H/D201E/E176V/E204Q/G107R/H137Y/K202T/N104T/N87E/Q56L/Q94K/R106L/R155S/R180L/S101D/S121N/S48T/Y140D/Y33H/Y91C).
T1 construct: expressed in transfected cells; host or cells: RMA-S (TAP-deficient murine cell line)
The assay can be described thus: HLA/peptide complex stability assay, RMA-S cells transfected with HLA-B*2705. The following applies: SD.

In assay [2] the target is T2, HLA-B*2703 (Homo sapiens, UniProt P01889, D138H/D201E/E176V/E204Q/G107R/H137Y/K202T/N104T/N87E/Q56L/Q94K/R106L/R155S/R180L/S101D/S121N/S48T/Y140D/Y33H/Y83H/Y91C).
T2 construct: expressed in transfected cells; host or cells: RMA-S (TAP-deficient murine cell line)
Kind of assay: HLA/peptide complex stability assay, RMA-S cells transfected with HLA-B*2703. The following applies: EC50, B*2703; SD.

In assay [3] the target is HLA-B*2704 (Homo sapiens, UniProt P01889, A235G/D138H/D201E/E204Q/G107R/H137Y/K202T/N104T/N87E/Q56L/Q94K/R106L/R155S/R180L/S121N/S48T/Y140D/Y33H/Y91C). The assay can be described thus: HLA/peptide complex stability assay, RMA-S cells transfected with HLA-B*2704. The following applies: SD.
Assay [4] deals with T3, HLA-B*2706 (Homo sapiens, UniProt P01889, A235G/D201E/E204Q/G107R/H137Y/K202T/N104T/N87E/Q56L/Q94K/R106L/R155S/R180L/S121N/S48T/Y33H/Y91C).
T3 construct: expressed in transfected cells; host or cells: RMA-S (TAP-deficient murine cell line)
Kind of assay: HLA/peptide complex stability assay, RMA-S cells transfected with HLA-B*2706. The settings on record: SD.

Assay [5] addresses T4, HLA-B*2701 (Homo sapiens, UniProt P01889, D138H/D201E/D98Y/E176V/E204Q/G107R/H137Y/K202T/L105A/N104T/N87E/Q56L/Q94K/R106L/R155S/R180L/S101N/S121N/S48T/Y140D/Y33H/Y91C).
T4 construct: expressed in transfected cells; host or cells: RMA-S (TAP-deficient murine cell line)
The assay can be described thus: HLA/peptide complex stability assay, RMA-S cells transfected with HLA-B*2701. The settings on record: SD.

Assay [6] addresses HLA-B*2702 (Homo sapiens, UniProt P01889, D138H/D201E/E176V/E204Q/G107R/H137Y/K202T/L105A/N104I/N87E/Q56L/Q94K/R106L/R155S/R180L/S101N/S121N/S48T/Y140D/Y33H/Y91C). Kind of assay: HLA/peptide complex stability assay, RMA-S cells transfected with HLA-B*2702. The following applies: EC50, B*2702; SD.
Assay [7] addresses T5, HLA-B*2709 (Homo sapiens, UniProt P01889, D138H/D201E/E176V/E204Q/G107R/H137Y/K202T/N104T/N87E/Q56L/Q94K/R106L/R155S/R180L/S101D/S121N/S48T/Y140H/Y33H/Y91C).
T5 construct: expressed in transfected cells; host or cells: RMA-S (TAP-deficient murine cell line)
The assay can be described thus: HLA/peptide complex stability assay, RMA-S cells transfected with HLA-B*2709. The settings on record: EC50, B*2709; SD.

A word on the EC50: it is the concentration at which the effect is half-maximal. High values mean a less potent agent, low ones a more potent agent. In the case of “RRAIATPGM [Flu PB1 238-246, reference compound]”, the EC50 in assay [1] was 3 ± 2 µM; in assay [2], 2 ± 1 µM; in assay [3], 9 ± 1 µM; in assay [4] it was 2 ± 1 µM; in assay [5], 5 ± 1 µM; in assay [6] it was 12 ± 4 µM. This sequence also returned an EC50 in assay [7] of 2 ± 1 µM.

(Values after publication PMC4182091, “A Common Minimal Motif for the Ligands of HLA-B*27 Class I Molecules” (PLoS ONE, 2014).)
